Experimental data published in ChEMBL document CHEMBL1201862, “PubChem BioAssay data set” (2004).
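Test compounds were applied to cells in 96-well plates for 48 hours at 5 doses. Abbreviation: GI50, concentration required for 50% inhibition of growth.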 Calls of active or inactive are those of the source. Cut-off read from the data, not from the text of the source: active = GI50 up to about 1.1 µM and inactive = higher.

Key:
Experiment in all cases: NCI anticancer screen, dose series, 48 h
[1] = system: OVCAR-4
[2] = system: SK-MEL-28
[3] = system: COLO 205
[4] = system: OVCAR-8
[5] = system: CCRF-CEM
[6] = system: A549
[7] = system: RXF 393
[8] = system: UACC-62
[9] = system: SF-268
[10] = system: UO-31
[11] = system: MCF7
[12] = system: NCI-H522
[13] = system: HCT-116
[14] = system: M14
[15] = system: NCI-H23
[16] = system: MDA-MB-231
[17] = system: UACC-257
[18] = system: NCI-H226
[19] = system: NCI-H460
[20] = system: SR

SMILES	GI50 [1]	GI50 [2]	GI50 [3]	GI50 [4]	GI50 [5]	GI50 [6]	GI50 [7]	GI50 [8]	GI50 [9]	GI50 [10]	GI50 [11]	GI50 [12]	GI50 [13]	GI50 [14]	GI50 [15]	GI50 [16]	GI50 [17]	GI50 [18]	GI50 [19]	GI50 [20]
CC(C)N/C(=N\C#N)NS(=O)(=O)c1cnccc1Nc1ccc(Cl)cc1	> 100 µM (inactive)	> 100 µM (inactive)	> 100 µM (inactive)	> 100 µM (inactive)	> 100 µM (inactive)	> 100 µM (inactive)	> 100 µM (inactive)	> 100 µM (inactive)	> 100 µM (inactive)	> 100 µM (inactive)	> 100 µM (inactive)	> 100 µM (inactive)	> 100 µM (inactive)	> 100 µM (inactive)	> 100 µM (inactive)	> 100 µM (inactive)	> 100 µM (inactive)	> 100 µM (inactive)	–	–
C=CC1(c2ccc3ccccc3c2)OCC(CC)(CC)CO1	41 µM (inactive)	39.4 µM (inactive)	16.3 µM (inactive)	48.3 µM (inactive)	20.3 µM (inactive)	33.9 µM (inactive)	20 µM (inactive)	24.8 µM (inactive)	33.3 µM (inactive)	32.7 µM (inactive)	37.6 µM (inactive)	24.5 µM (inactive)	21.3 µM (inactive)	19.9 µM (inactive)	20.1 µM (inactive)	15.8 µM (inactive)	27.2 µM (inactive)	16.4 µM (inactive)	22.1 µM (inactive)	–
CC(C)(C)C(=O)N(C(=S)OCc1ccccn1)c1ccccc1	–	> 100 µM (inactive)	21.8 µM (inactive)	31.6 µM (inactive)	22.6 µM (inactive)	–	18.2 µM (inactive)	63 µM (inactive)	36.1 µM (inactive)	27.8 µM (inactive)	19.8 µM (inactive)	–	23.1 µM (inactive)	39.4 µM (inactive)	35.3 µM (inactive)	31 µM (inactive)	> 100 µM (inactive)	67.8 µM (inactive)	–	–
N#C/C(N)=C(C#N)/N=C/Nc1ccc(N)cc1	> 100 µM (inactive)	> 100 µM (inactive)	> 100 µM (inactive)	> 100 µM (inactive)	44.3 µM (inactive)	> 100 µM (inactive)	–	> 100 µM (inactive)	> 100 µM (inactive)	> 100 µM (inactive)	96.6 µM (inactive)	> 100 µM (inactive)	> 100 µM (inactive)	> 100 µM (inactive)	> 100 µM (inactive)	> 100 µM (inactive)	> 100 µM (inactive)	> 100 µM (inactive)	> 100 µM (inactive)	> 100 µM (inactive)
CCCCCCCCCc1c(O)c(O)c(CCCCCCCCC)c(CCCCCCCCC)c1CCCCCCCCC	> 100 µM (inactive)	> 100 µM (inactive)	> 100 µM (inactive)	> 100 µM (inactive)	31 µM (inactive)	> 100 µM (inactive)	> 100 µM (inactive)	> 100 µM (inactive)	> 100 µM (inactive)	–	8.18 µM (inactive)	30.2 µM (inactive)	> 100 µM (inactive)	> 100 µM (inactive)	> 100 µM (inactive)	> 100 µM (inactive)	> 100 µM (inactive)	> 100 µM (inactive)	> 100 µM (inactive)	–
OC(c1ccc2c(c1)OCO2)c1ccc2c(c1)OCO2	> 100 µM (inactive)	> 100 µM (inactive)	> 100 µM (inactive)	> 100 µM (inactive)	> 100 µM (inactive)	> 100 µM (inactive)	–	> 100 µM (inactive)	53.6 µM (inactive)	75 µM (inactive)	> 100 µM (inactive)	> 100 µM (inactive)	> 100 µM (inactive)	> 100 µM (inactive)	> 100 µM (inactive)	> 100 µM (inactive)	> 100 µM (inactive)	> 100 µM (inactive)	> 100 µM (inactive)	> 100 µM (inactive)
O=C1/C(=C/c2ccc([N+](=O)[O-])cc2)Sc2scc(-c3cccc([N+](=O)[O-])c3)[n+]21	9.53 µM (inactive)	–	1.85 µM (inactive)	6.11 µM (inactive)	0.364 µM (active)	22.2 µM (inactive)	2.35 µM (inactive)	8.79 µM (inactive)	2.15 µM (inactive)	8.51 µM (inactive)	4.09 µM (inactive)	0.973 µM (active)	4.6 µM (inactive)	3.78 µM (inactive)	7.93 µM (inactive)	4.91 µM (inactive)	5.32 µM (inactive)	11.5 µM (inactive)	8.99 µM (inactive)	–
COc1cccc(/C=N/C(/N=C/c2cccc(OC)c2O)c2cccc(OC)c2O)c1O	–	18.7 µM (inactive)	32.1 µM (inactive)	12.6 µM (inactive)	7 µM (inactive)	26.7 µM (inactive)	8.39 µM (inactive)	24.2 µM (inactive)	10.6 µM (inactive)	20.1 µM (inactive)	18.9 µM (inactive)	21.8 µM (inactive)	14.6 µM (inactive)	17.1 µM (inactive)	28.8 µM (inactive)	25.1 µM (inactive)	23.1 µM (inactive)	–	21.7 µM (inactive)	6.38 µM (inactive)
